{
  "source": "patent US7079956B2",
  "about": "“Crystal structure of antibiotics bound to the 30S ribosome and its use” (Medical Research Council, priority 2000, dated 2006)",
  "origin": "cited, not measured here",
  "conditions": "literature values: Ross et al. 1998 (tetracycline), Cohen et al. 1969 (pactamycin), Cabanas et al. 1978 (hygromycin B)",
  "data": [
    {"smiles": "CN[C@H]1C[C@@H](N)[C@H](O)[C@@H](O[C@@H]2O[C@H](CO)[C@H](O)[C@@H]3OC4(O[C@H]23)O[C@H]([C@@H](N)CO)[C@H](O)[C@H](O)[C@H]4O)[C@@H]1O", "note": "(stereo partly drawn) [hygromycin B, O-6-amino-6-deoxy-L-glycero-D-galacto-heptopyranosylidene-(12-3)-O-D-talopyranosyl-(15)-2-deoxy-N3-methyl-D-streptamine]", "values": [
      {"measurement": "minimum inhibitory concentration", "value": "around 6 μM"}
    ]},
    {"smiles": "CC(=O)c1cccc(NC2C(N)C(NC(=O)N(C)C)(C(C)O)C(C)(O)C2(O)COC(=O)c2c(C)cccc2O)c1", "note": "(centres unmarked) [pactamycin, 2-hydroxy-6-methylbenzoic acid [5-[(3-acetylphenyl)amino]-4-amino-3-[[(dimethylamino)-carbonyl]amino]-1,2-dihydroxy-3-(1-hydroxy-ethyl)-2-methylcyclopentyl]methyl ester]", "values": [
      {"measurement": "minimum inhibitory concentration", "value": "8 to 80", "unit": "µM"}
    ]}
  ]
}
